In the assay the target is T1, ITK (Homo sapiens, UniProt Q08881).
T1 construct: purchased Invitrogen PV3875
T1 sequence (Q08881 1-620): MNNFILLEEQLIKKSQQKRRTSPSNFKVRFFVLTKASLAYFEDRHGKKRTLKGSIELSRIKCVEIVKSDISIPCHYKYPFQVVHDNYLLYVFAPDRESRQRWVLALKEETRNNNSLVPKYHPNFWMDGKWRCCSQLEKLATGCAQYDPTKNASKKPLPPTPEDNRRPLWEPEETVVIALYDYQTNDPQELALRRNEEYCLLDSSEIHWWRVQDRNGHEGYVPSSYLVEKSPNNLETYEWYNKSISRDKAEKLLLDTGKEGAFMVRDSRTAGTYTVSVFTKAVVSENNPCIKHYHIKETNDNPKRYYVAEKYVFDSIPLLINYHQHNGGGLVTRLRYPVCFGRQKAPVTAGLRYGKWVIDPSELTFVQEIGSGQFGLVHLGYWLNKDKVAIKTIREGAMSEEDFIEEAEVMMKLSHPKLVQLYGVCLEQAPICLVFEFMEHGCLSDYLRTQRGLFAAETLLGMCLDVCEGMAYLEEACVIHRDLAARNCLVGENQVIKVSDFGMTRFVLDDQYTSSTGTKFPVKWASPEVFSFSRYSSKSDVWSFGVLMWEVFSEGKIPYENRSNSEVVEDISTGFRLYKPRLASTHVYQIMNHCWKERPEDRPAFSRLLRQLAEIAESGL
As to the kind of experiment: ITK enzyme assay (Caliper or LCMS peptide phosphorylation). In kind it is biochemical. To be noted: purified ITK (Invitrogen PV3875), 20 μM ATP, Ki by Morrison's quadratic equation. The method, boiled down: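 Purified human ITK peptide phosphorylation, quenched with EDTA (50 mM final) for Caliper LabChip separation or TCA (5% v/v final) for UPLC-MS/MS MRM quantification. Ki derived via Morrison tight-binding equation, corrected for competitive inhibition using ATP concentration relative to Km,app.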
The term Ki denotes a dissociation constant, usually derived from enzyme kinetics or from competition with a known ligand. Read a high Ki as weaker binding. As to `CC1(C)CCc2c(C(=O)Nc3cnn(C(c4ccccc4)C4CCN(CCF)CC4)c3)n[nH]c2C1` (single isomer, unassigned) [Example 63a, N-(1-((1-(2-fluoroethyl)piperidin-4-yl)(phenyl)methyl)-1H-pyrazol-4-yl)-6,6-dimethyl-4,5,6,7-tetrahydro-1H-indazole-3-carboxamide], the affinity corresponds to a Ki of 0.1 nM. Under `CC1(C)CCc2c(C(=O)Nc3cnn(C(c4ccccc4)C4CCN(CCF)CC4)c3)n[nH]c2C1` (single isomer, unassigned) [Example 63b, N-(1-((1-(2-fluoroethyl)piperidin-4-yl)(phenyl)methyl)-1H-pyrazol-4-yl)-6,6-dimethyl-4,5,6,7-tetrahydro-1H-indazole-3-carboxamide] stands 1 nM.

`CC1(C)CCc2c(C(=O)Nc3cnn(C(c4ccccc4)[C@@H]4CNCCO4)c3)n[nH]c2C1` (single isomer, unassigned) [Example 66a] showed a Ki of 0.3 nM.

As to `CC1(C)CCc2c(C(=O)Nc3cnn(C(c4ccccc4)[C@@H]4CNCCO4)c3)n[nH]c2C1` (single isomer, unassigned) [Example 66b], the Ki turned out to be 1 nM. Under `CC1(C)CCc2c(C(=O)Nc3cnn(C(c4ccccc4)C4CCN(S(C)(=O)=O)CC4)c3)n[nH]c2C1` (single isomer, unassigned) [Example 67a, 6,6-dimethyl-N-(1-((1-(methylsulfonyl)piperidin-4-yl)(phenyl)methyl)-1H-pyrazol-4-yl)-4,5,6,7-tetrahydro-1H-indazole-3-carboxamide] stands 0.2 nM. For the compound `CC1(C)CCc2c(C(=O)Nc3cnn(C(c4ccccc4)C4CCN(S(C)(=O)=O)CC4)c3)n[nH]c2C1` (single isomer, unassigned) [Example 67b, 6,6-dimethyl-N-(1-((1-(methylsulfonyl)piperidin-4-yl)(phenyl)methyl)-1H-pyrazol-4-yl)-4,5,6,7-tetrahydro-1H-indazole-3-carboxamide], the Ki is 3 nM.

Take `CN(C)CC(c1ccccc1)n1cc(NC(=O)c2n[nH]c3c2CC2CC2(C)C3)cn1` (single isomer, unassigned) [Example 68a, N-(1-(2-(dimethylamino)-1-phenylethyl)-1H-pyrazol-4-yl)-5a-methyl-1,4,4a,5,5a,6-hexahydrocyclopropa[f]indazole-3-carboxamide]: the Ki amounted to 0.2 nM. The result for `CN(C)CC(c1ccccc1)n1cc(NC(=O)c2n[nH]c3c2CC2CC2(C)C3)cn1` (single isomer, unassigned) [Example 68b, N-(1-(2-(dimethylamino)-1-phenylethyl)-1H-pyrazol-4-yl)-5a-methyl-1,4,4a,5,5a,6-hexahydrocyclopropa[f]indazole-3-carboxamide] reads 4 nM; that for `CC1(C)Cc2[nH]nc(C(=O)Nc3cnn(Cc4ccccc4)c3)c2CC1O` (single isomer, unassigned) [Example 70a, N-(1-benzyl-1H-pyrazol-4-yl)-5-hydroxy-6,6-dimethyl-4,5,6,7-tetrahydro-1H-indazole-3-carboxamide], 11 nM. Under `CC1(C)Cc2[nH]nc(C(=O)Nc3cnn(Cc4ccccc4)c3)c2CC1O` (single isomer, unassigned) [Example 70b, N-(1-benzyl-1H-pyrazol-4-yl)-5-hydroxy-6,6-dimethyl-4,5,6,7-tetrahydro-1H-indazole-3-carboxamide] stands 7 nM; under `CC1(C)CCc2c(C(=O)Nc3cnn(C(CS(C)(=O)=O)c4cccnc4)c3)n[nH]c2C1` (single isomer, unassigned) [Example 73a, 6,6-dimethyl-N-(1-(2-(methylsulfonyl)-1-(pyridin-3-yl)ethyl)-1H-pyrazol-4-yl)-4,5,6,7-tetrahydro-1H-indazole-3-carboxamide], 0.7 nM. The result for `CC1(C)CCc2c(C(=O)Nc3cnn(C(CS(C)(=O)=O)c4cccnc4)c3)n[nH]c2C1` (single isomer, unassigned) [Example 73b, 6,6-dimethyl-N-(1-(2-(methylsulfonyl)-1-(pyridin-3-yl)ethyl)-1H-pyrazol-4-yl)-4,5,6,7-tetrahydro-1H-indazole-3-carboxamide] reads 7 nM. As to `CC1(C)CCc2c(C(=O)Nc3cnn(C(c4cccnc4)C4CCS(=O)(=O)CC4)c3)n[nH]c2C1` (single isomer, unassigned) [Example 74a, N-(1-((1,1-dioxidotetrahydro-2H-thiopyran-4-yl)(pyridin-3-yl)methyl)-1H-pyrazol-4-yl)-6,6-dimethyl-4,5,6,7-tetrahydro-1H-indazole-3-carboxamide], affinity was put at a Ki of 0.2 nM. Under `CC1(C)CCc2c(C(=O)Nc3cnn(C(c4cccnc4)C4CCS(=O)(=O)CC4)c3)n[nH]c2C1` (single isomer, unassigned) [Example 74b, N-(1-((1,1-dioxidotetrahydro-2H-thiopyran-4-yl)(pyridin-3-yl)methyl)-1H-pyrazol-4-yl)-6,6-dimethyl-4,5,6,7-tetrahydro-1H-indazole-3-carboxamide] stands 3 nM; under `CC1(C)CCc2c(C(=O)Nc3cnn(C(c4ccccc4)C4CN(CCF)C4)c3)n[nH]c2C1` (single isomer, unassigned) [Example 75a, N-(1-((1-(2-fluoroethyl)azetidin-3-yl)(phenyl)methyl)-1H-pyrazol-4-yl)-6,6-dimethyl-4,5,6,7-tetrahydro-1H-indazole-3-carboxamide], 2 nM; under `CC1(C)CCc2c(C(=O)Nc3cnn(C(CN4CCOCC4=O)c4ccccc4)c3)n[nH]c2C1` (single isomer, unassigned) [Example 77a, 6,6-dimethyl-N-(1-(2-(3-oxomorpholino)-1-phenylethyl)-1H-pyrazol-4-yl)-4,5,6,7-tetrahydro-1H-indazole-3-carboxamide], 20 nM. On to `CC1(C)CCc2c(C(=O)Nc3cnn(C(CN4CCOCC4=O)c4ccccc4)c3)n[nH]c2C1` (single isomer, unassigned) [Example 77b, 6,6-dimethyl-N-(1-(2-(3-oxomorpholino)-1-phenylethyl)-1H-pyrazol-4-yl)-4,5,6,7-tetrahydro-1H-indazole-3-carboxamide], for which the affinity, expressed as Ki, was 2 nM. Under `CC(C1CCOCC1)n1cc(NC(=O)c2n[nH]c3c2CCC(C)(C)C3)cn1` (single isomer, unassigned) [Example 78a, 6,6-dimethyl-N-(1-(1-(tetrahydro-2H-pyran-4-yl)ethyl)-1H-pyrazol-4-yl)-4,5,6,7-tetrahydro-1H-indazole-3-carboxamide] stands 26 nM; under `CC(C1CCOCC1)n1cc(NC(=O)c2n[nH]c3c2CCC(C)(C)C3)cn1` (single isomer, unassigned) [Example 78b, 6,6-dimethyl-N-(1-(1-(tetrahydro-2H-pyran-4-yl)ethyl)-1H-pyrazol-4-yl)-4,5,6,7-tetrahydro-1H-indazole-3-carboxamide], 6 nM.

Turning to `O=C(Nc1cnn(Cc2ccccc2)c1)c1n[nH]c2c1CC1(CCOC1)C2` (single isomer, unassigned) [Example 79a, N-(1-benzyl-1H-pyrazol-4-yl)-4,4′,5′,6-tetrahydro-1H,2′H-spiro[cyclopenta[c]pyrazole-5,3′-furan]-3-carboxamide], the inhibitory constant (Ki) came out at 46 nM. The result for `O=C(Nc1cnn(Cc2ccccc2)c1)c1n[nH]c2c1CC1(CCOC1)C2` (single isomer, unassigned) [Example 79b, N-(1-benzyl-1H-pyrazol-4-yl)-4,4′,5′,6-tetrahydro-1H,2′H-spiro[cyclopenta[c]pyrazole-5,3′-furan]-3-carboxamide] reads 95 nM.
